The record followed here is PMC4232510, “Identification of Functionally Important Residues of the Rat P2X4 Receptor by Alanine Scanning Mutagenesis of the Dorsal Fin and Left Flipper Domains” (PLoS ONE, 2014).

For test [1], the target named is T1, rP2X4R E285A mutant (Rattus norvegicus, UniProt P51577, E285A).
T1 construct: expressed in transfected cells; host or cells: HEK293T
T1 sequence (P51577 1-388 E285A): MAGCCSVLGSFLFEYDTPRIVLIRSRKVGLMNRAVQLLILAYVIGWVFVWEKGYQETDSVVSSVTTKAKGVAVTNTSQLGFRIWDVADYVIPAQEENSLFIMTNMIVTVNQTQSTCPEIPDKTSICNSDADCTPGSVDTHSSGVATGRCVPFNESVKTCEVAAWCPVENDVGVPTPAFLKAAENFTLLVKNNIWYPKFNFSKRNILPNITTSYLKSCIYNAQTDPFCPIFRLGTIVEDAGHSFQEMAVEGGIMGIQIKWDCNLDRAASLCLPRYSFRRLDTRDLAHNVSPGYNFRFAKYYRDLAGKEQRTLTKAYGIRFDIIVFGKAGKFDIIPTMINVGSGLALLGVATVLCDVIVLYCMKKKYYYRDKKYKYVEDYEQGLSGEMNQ
Nature of the test: whole-cell patch clamp, HEK293T cells expressing mutant. It counts as cell-based.

Test [2] deals with T2, rP2X4R S289A mutant (Rattus norvegicus, UniProt P51577, S289A).
T2 construct: expressed in transfected cells; host or cells: HEK293T
T2 sequence (P51577 1-388 S289A): T1 sequence (P51577 1-388 E285A) with A285E, S289A
The description is as above. Type of test: cell-based.

[3] abbreviates: 100 µM ATP 60 s, biexponential fit.
Where [4] appears, read: contribution of τdes2, 100 µM ATP 60 s.
The mark [5] stands for this setting: decay after removal of 1 or 3 µM ATP, 3 µM IVM.
The mark [6] stands for this setting: naïve receptors, 2–5 s application.
The mark [7] stands for this setting: 3 µM IVM 4-6 min vs IVM-untreated.

Residue numbers refer to the chain shown, from its start.

What is called EC50 is the concentration at which the effect is half-maximal. Higher therefore signals a need for much substance. As for `Nc1ncnc2c1ncn2[C@@H]1O[C@H](COP(=O)(O)OP(=O)(O)OP(=O)(O)O)[C@@H](O)[C@H]1O` [ATP], the τdes1 is reported as 0.9 ± 0.2 s in test [1] (setting [3]) and 0.9 ± 0.3 s in test [2] (setting [3]). Also, the τdes2 in test [1] (setting [3]) amounted to 8.5 ± 3.6 s; in test [2] (setting [3]), 11.3 ± 0.6 s. For the same compound, the values for the Imax in test [1] (100–1000 µM ATP) and in test [2] (100–1000 µM ATP) were 2.0 ± 0.5 nA and 1.4 ± 0.2 nA, respectively. Also, the results for the “Imax+IVM” value in test [1] (ATP after 3 µM IVM 4-6 min) and in test [2] (ATP after 3 µM IVM 4-6 min) were 2.6 ± 0.6 nA and 4.5 ± 1.1 nA, respectively. The “A2 /(A1+A2)” value was found to be 65 ± 2% in test [1] (setting [4]) and 56 ± 7% in test [2] (setting [4]). Further, the “τoff +IVM” value came out at 24 ± 4.3 s in test [1] (setting [5]) and 15 ± 1.1 s in test [2] (setting [5]). The figures for the EC50 in test [1] (setting [6]) and in test [2] (setting [6]) were 7.1 ± 3 µM and 3.6 ± 1.9 µM, respectively. For the same compound, the τdes in test [1] (weighted, 100 µM ATP 60 s) is reported as 6.0 ± 2.6 s; in test [2] (weighted, 100 µM ATP 60 s), 6.8 ± 1.0 s.
`CC[C@H](C)[C@H]1O[C@]2(CC[C@@H]1C)C[C@@H]1C[C@@H](C/C=C(\C)[C@@H](O[C@H]3C[C@H](OC)[C@@H](O[C@H]4C[C@H](OC)[C@@H](O)[C@H](C)O4)[C@H](C)O3)[C@@H](C)/C=C/C=C3\CO[C@@H]4[C@H](O)C(C)=C[C@@H](C(=O)O1)[C@]34O)O2` [IVM, ivermectin]: the “Fold incr. Imax” value came out at 1.3 ± 0.4 fold in test [1] (setting [7]) and 3.2 ± 0.2 fold in test [2] (setting [7]).
